Assay results as given in patent US20030060487A1, “Treatment of neurodegenerative disease” (priority 2000, published 2003).

Key:
[1] = test system: Amyloid Precursor Protein (APP) in HEK cells; assay: Colorimetric whole cell screening assay for drugs that effect APP production, secretion, or cleavage; assay type: cell-based, Human; details: HEK cells expressing APP; 1.25 ul of 2.9 mg/mL drug in DMSO per well, approx. 18 hours; then 5 uM His-AB colloids 8-12 hours
Experimental: Human Embryonic Kidney (HEK) cells expressing the Amyloid Precursor Protein (APP) were split into the wells of a 96-well cell-culture plate and were allowed to adhere and spread. […] Positive control cells were given DMSO in place of a drug. […] Cells were allowed to grow overnight for approximately 18 hours at 37C. After 18 hours, 1.925 mL of a 30 uM solution of His-tagged AB(1-40) in phosphate buffer was mixed with 2.880 mL 40 uM NTA colloids for a resulting concentration of 12 uM His-AB. 50 ul of the AB colloid solution was added to each well of the cell-culture plate, which contained 70 ul cell culture media per well. […] The plates were incubated at 37C for 8-12 hours, or until a color change from pink to blue occurred in the positive controls.
Once the positive controls changed color from pink to blue, the wells containing drug candidates were visually examined for a color change. […] Cell death due to drug toxicity would obviously effect APP production, and may cause a well to remain pink. For this reason, all wells containing drug candidates were examined under the microscope for cell viability.

[2] = biological target: T1, β-amyloid peptide (his-Aβ 1-40) (Homo sapiens, UniProt P05067); assay: Colloid colorimetric drug screen for fibril inhibition at low peptide concentration, no pre-formed aggregate; assay type: biochemical; details: 5 uM his-Aβ 1-40, no pre-formed aggregate; 5 ul drug (2.9 mg/ml in DMSO); 37C 1.5-2 hours; well stays pink vs blue
T1 construct: 10 ul of a 50 uM solution of his-Aβ 1-40 peptide in phosphate buffer
T1 sequence (P05067 672-711): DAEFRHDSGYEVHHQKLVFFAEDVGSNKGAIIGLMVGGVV
Excerpt: (§1) Compositions were identified that inhibit aggregation characteristic of neurodegenerative disease at high B-amyloid peptide concentration, low peptide concentration, and in some cases both. Compositions that inhibited aggregation at high concentration inhibited formation where an assay included B-amyloid peptide and at least some amount of pre-formed aggregate characteristic of neurodegenerative disease. Compositions that inhibited aggregation at low concentration inhibited […] in the presence of β-amyloid peptide but in the absence of any pre-formed aggregate characteristic of neurodegenerative disease.
In one drug screening method, histidine-tagged AB 1-40 peptides were immobilized on colloids derivatized with self-assembled monolayers containing NTA-Ni for the attachment of histidine-tagged peptides. It has been previously shown that the Aβ peptides, if not inhibited by a drug, will spontaneously convert to the fibrillar form and aggregate, pulling the colloids close together, and causing a color change from pink to blue.
Drugs from the Sigma-RBI Library of Pharmacologically Active Compounds (LOPAC; #SC001, 1999) were dissolved in dimethyl sulphoxide (DMSO) to a final concentration of 2.9 mg/ml. […]

[3] = biological target: T2, β-amyloid peptide (his-Aβ 1-40) with Aβ 1-42 fibrils (Homo sapiens, UniProt P05067); assay: Colloid drug screen for aggregate inhibition at high peptide concentration, with pre-formed Aβ 1-42 fibrils; assay type: biochemical; details: 20 uM his-Aβ 1-40 + 1 uM Aβ 1-42 fibrils; 5 ul drug (2.9 mg/ml in DMSO) in 100 ul; 37° C. 4-6 hours; microscope 40×
T2 construct: 10 ul of a 200 uM solution of his-Aβ 1-40 peptide in phosphate buffer; 3.3 ul of 30 uM Aβ 1-42 fibrils (non-histidine-tagged) was added to each well
T2 sequence (P05067 672-713): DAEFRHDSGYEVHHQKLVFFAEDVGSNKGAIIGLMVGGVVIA
T2 sequence (P05067 672-711): as the sequence (P05067 672-711) above
Excerpt: as §1
In another drug screening method, drugs were incubated with Aβ 1-42 fibrils, which will convert normal Aβ 1-40 peptides to the fibrillar form at a faster rate than Aβ 1-40 fibrils. Histidine-tagged Aβ 1-40 peptides were then added to the wells, along with colloids derivatized with self-assembled monolayers containing NTA-Ni for the attachment of histidine-tagged Aβ 1-40. It was previously shown that Aβ 1-42 fibrils will cause accelerated conversion of Aβ 1-40, which will then incorporate into large aggregates structures. These aggregates are colored red by the colloids attached to the peptides, and are easily visible under the microscope.
5 ul of each drug in DMSO was added to the wells of a 96-well ELISA plate, which contained 52 ul of phosphate buffer. […]

inhibition of aggregate formation at low peptide concentration [2]: do not provide a positive result
inhibition of aggregate formation at high peptide concentration [3]: do not provide a positive result
Structure (SMILES): COc1cc(Cc2cnc(N)nc2N)cc(OC)c1OC [trimethoprim]
effect on APP production, secretion, or cleavage (lack of color change pink to blue) [1]: do not provide a positive result
